pIC50: −log10 of the molar value.

Usually pIC50 stands for −log10 of the IC50, conventionally taken in molar units. The low end stands for a high IC50, the high end for a low IC50.

The experiment addresses T1, PDK-1 (Homo sapiens, UniProt O15530).
T1 sequence (O15530 1-556): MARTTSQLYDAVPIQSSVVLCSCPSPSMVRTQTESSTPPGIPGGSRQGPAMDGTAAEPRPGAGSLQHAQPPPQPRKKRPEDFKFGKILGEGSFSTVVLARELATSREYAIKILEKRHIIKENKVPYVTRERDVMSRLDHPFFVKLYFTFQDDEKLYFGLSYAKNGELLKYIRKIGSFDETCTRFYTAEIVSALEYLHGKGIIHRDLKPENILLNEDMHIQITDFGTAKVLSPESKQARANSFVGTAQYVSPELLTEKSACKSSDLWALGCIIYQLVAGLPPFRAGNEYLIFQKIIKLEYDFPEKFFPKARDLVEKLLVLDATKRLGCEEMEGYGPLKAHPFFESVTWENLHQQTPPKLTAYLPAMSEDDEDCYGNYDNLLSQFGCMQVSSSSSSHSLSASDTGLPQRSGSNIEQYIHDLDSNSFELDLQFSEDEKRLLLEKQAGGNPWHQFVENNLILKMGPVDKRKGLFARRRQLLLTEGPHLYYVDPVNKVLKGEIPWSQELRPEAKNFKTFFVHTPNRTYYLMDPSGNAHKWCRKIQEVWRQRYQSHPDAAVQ
Nature of the experiment: In vitro PDK-1 inhibition ELISA assay (phosphorylation of SGK1 on Threonine 256). The format is biochemical. The following applies: PDK-1 phosphorylates 6xHIS tagged SGK1, 17 minutes reaction, chemiluminescent detection. As to the method:
The ability of illustrative Dibenzonaphthyridine Derivatives to inhibit PDK-1 in vitro can be determined using the ELISA assay as decribed in Kobayashi et al., Biochem. J. 339:319-328 (1999) and Park et al., EMBO J. 18:3024-3033 (1999).
In this in vitro assay, PDK-1 kinase phosphorylates SGK1 on Threonine 256. After 17 minutes, the reaction is quenched via the addition of urea. The 6×HIS tagged SGK1 is then bound to 96 well Ni-NTA HisSorb plates and the phosphorylated SGK1 is detected using rabbit derived anti-phospho SGK antibody as the primary antibody and HRP coupled anti-rabbit antibody as the secondary antibody. HRP is then detected using a Chemiluminescent Substrate.
Turning to `COc1cc2c(cc1OCCC1CCN(C)CC1)ncc1c(N)nc3c(C)c(N)ccc3c12` [Ib-33, 11-methoxy-4-methyl-10-[2-(1-methylpiperidin-4-yl)ethoxy]dibenzo[c,f]-2,7-naphthyridine-3,6-diamine], the negative logarithm of the IC50 (pIC50) is 6.42.
To `COc1cc2c(cc1OCC1CCCN(C)C1)ncc1c(N)nc3c(C)c(N)ccc3c12` (stereo not shown) [Ib-34, 11-methoxy-4-methyl-10-[(1-methylpiperidin-3-yl)methoxy]dibenzo[c,f]-2,7-naphthyridine-3,6-diamine] belongs 5.75.
`COc1cc2c(cc1OCCCN1CCCC1=O)ncc1c(N)nc3c(C)c(N)ccc3c12` [Ib-35, 1-{3-[(7,10-diamino-2-methoxy-9-methyldibenzo[c,f]-2,7-naphthyridin-3-yl)oxy]propyl}pyrrolidin-2-one]: the negative logarithm of the IC50 (pIC50) was 6.95.
Under `COc1cc2ncc3c(N)nc4c(C)c(N5C(=O)c6ccccc6C5=O)ccc4c3c2cc1OC` [Ib-36, 2-(6-amino-10,11-dimethoxy-4-methyldibenzo[c,f]-2,7-naphthyridin-3-yl)-1H-isoindole-1,3(2H)-dione] stands 5.76; under `COc1cc2ncc3c(N)nc4cc(N)ccc4c3c2cc1OC` [Ib-38, 10,11-dimethoxydibenzo[c,f]-2,7-naphthyridine-3,6-diamine], 6.17.
For `COc1cc2ncc3c(N)nc4c(C)cccc4c3c2cc1OC` [Ib-39, 10,11-dimethoxy-4-methyldibenzo[c,f]-2,7-naphthyridin-6-amine], the pIC50 is 6.59.
Take `COc1cc2c(cc1OCCC(C)C)ncc1c(N)nc3c(C)c(N)ccc3c12` [Ib-40, 11-methoxy-4-methyl-10-(3-methylbutoxy)dibenzo[c,f]-2,7-naphthyridine-3,6-diamine]: the pIC50 is 5.93.
The compound `COc1cc2c(cc1OCCC(C)(C)C)ncc1c(N)nc3c(C)c(N)ccc3c12` [Ib-41, 10-(3,3-dimethylbutoxy)-11-methoxy-4-methyldibenzo[c,f]-2,7-naphthyridine-3,6-diamine] had a negative logarithm of the IC50 (pIC50) of 5.19.
`COc1cc2c(cc1OCCCOCc1ccccc1)ncc1c(N)nc3c(C)c(N)ccc3c12` [Ib-42, 10-[3-(benzyloxy)propoxy]-11-methoxy-4-methyldibenzo[c,f]-2,7-naphthyridine-3,6-diamine] had a negative logarithm of the IC50 (pIC50) of 5.61.
Under `COc1cc2c(cc1OC[C@@H]1CCCN1Cc1ccccc1)ncc1c(N)nc3c(C)c(N)ccc3c12` [Ib-43, 10-{[(2S)-1-benzylpyrrolidin-2-yl]methoxy}-11-methoxy-4-methyldibenzo[c,f]-2,7-naphthyridine-3,6-diamine] stands 5.53; under `COc1cc2c(cc1OC[C@@H]1CCCN1C[C@@H]1CCCN1C)ncc1c(N)nc3c(C)c(N)ccc3c12` [Ib-44, 11-methoxy-4-methyl-10-[((2S)-1-{[(2S)-1-methylpyrrolidin-2-yl]methyl}pyrrolidin-2-yl)methoxy]dibenzo[c,f]-2,7-naphthyridine-3,6-diamine], 6.02; under `COc1cc2c(cc1OCCC1CCCC1)ncc1c(N)nc3c(C)c(N)ccc3c12` [Ib-45, 10-(2-cyclopentylethoxy)-11-methoxy-4-methyldibenzo[c,f]-2,7-naphthyridine-3,6-diamine], 5.34.
Under `COc1cc2c(cc1OCCC1CC1)ncc1c(N)nc3c(C)c(N)ccc3c12` [Ib-46, 10-(2-cyclopropylethoxy)-11-methoxy-4-methyldibenzo[c,f]-2,7-naphthyridine-3,6-diamine] stands 6.67.
Compound `CCOCCOc1cc2ncc3c(N)nc4c(C)c(N)ccc4c3c2cc1OC` [Ib-47, 10-(2-ethoxyethoxy)-11-methoxy-4-methyldibenzo[c,f]-2,7-naphthyridine-3,6-diamine] had a pIC50 of 6.77.
Compound `COc1cc2c(cc1O)ncc1c(N)nc3c(C)c(N)ccc3c12` [Ib-48, 7,10-diamino-2-methoxy-9-methyldibenzo[c,f]-2,7-naphthyridin-3-ol] gave a pIC50 of 5.86.
To `COc1cc2ncc3c(N)nc4c(C)c(Cl)ccc4c3c2cc1OC` [Ib-49, 3-chloro-10,11-dimethoxy-4-methyldibenzo[c,f]-2,7-naphthyridin-6-amine] belongs 5.65.
To `COc1cc2ncc3c(N)nc4c(C)c(O)ccc4c3c2cc1OC` [Ib-50, 6-amino-10,11-dimethoxy-4-methyldibenzo[c,f]-2,7-naphthyridin-3-ol] belongs 7.34; to `COc1cc2ncc3c(N)nc4c(C)c(OC)ccc4c3c2cc1OC` [Ib-51, 3,10,11-trimethoxy-4-methyldibenzo[c,f]-2,7-naphthyridin-6-amine], 7.31; to `CNc1nc2c(C)c(N)ccc2c2c1cnc1cc(OC)c(OC)cc12` [Ic-1, 10,11-dimethoxy-N-6,4-dimethyldibenzo[c,f]-2,7-naphthyridine-3,6-diamine], 4.44.

Source of the values: US7388016B2, “Dibenzonaphthyridine derivatives and methods of use thereof” (Wyeth, priority 2005, dated 2008).
